pIC50: −log10 of the molar value. Values joined by “and” are separate entries in the source; they are usually repeats but may differ in a detail not shown here. Equal values may be shown once. Where a name gives a salt, the structure may show the parent alone.

A word on the pIC50: it is the negative decadic logarithm of the IC50, by convention in mol/L.

The target of this assay is T1, Human ATX protein (Homo sapiens, UniProt Q13822).
T1 construct: made in house
As to the kind of experiment: ATX biochemical assay (FRET, FS-3 substrate). As to conditions: FRET assay, FS-3 2 μM, ATX 1.0 μg/mL, 30 minutes preincubation, 2 hours reaction at room temperature; read-out: IC50. The method in brief:
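In-house human ATX (1.0 μg/mL final) was preincubated with compound for 30 min at room temperature in Tris buffer pH 7.4 with 1 mg/mL fatty acid free-BSA. FS-3 substrate (2 μM final) was then hydrolysed for 2 hours at room temperature, protected from light, and read as fluorescence at ex 485/em 538 nm.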
Take `N#CC1CCN(CC(=O)N2CCc3c(C(F)(F)F)nn(Cc4ccc(F)cc4)c3C2)C1` (stereo not drawn) [Example 12-11, 1-(2-(1-(4-Fluorobenzyl)-3-(trifluoromethyl)-4,5-dihydro-1H-pyrazolo[3,4-c]pyridin-6(7H)-yl)-2-oxoethyl)pyrrolidine-3-carbonitrile TFA salt]: the negative logarithm of the IC50 (pIC50) is not below 7.00. In the case of `O=C(O)C1CCC(CC(=O)N2CCc3c(C(F)(F)F)nn(-c4ccccc4)c3C2)CC1` (stereo in doubt) [Example 5-21, cis-4-(2-Oxo-2-(1-phenyl-3-(trifluoromethyl)-4,5-dihydro-1H-pyrazolo[3,4-c]pyridin-6(7H)-yl)ethyl)cyclohexanecarboxylic acid], the pIC50 was < 6.30 and ≥ 5.00.

Regarding `NC(=O)c1nn(Cc2ccc(F)cc2)c2c1CCN(C(=O)C[C@H]1CC[C@H](C(=O)O)CC1)C2` [Example 5-47, trans-4-(2-(3-Carbamoyl-1-(4-fluorobenzyl)-4,5-dihydro-1H-pyrazolo[3,4-c]pyridin-6(7H)-yl)-2-oxoethyl)cyclohexanecarboxylic acid], the pIC50 is 6.30 to 6.60.

For the compound `COC(=O)N1CCCC(CC(=O)N2CCc3c(C(F)(F)F)nn(Cc4ccc(F)cc4)c3C2)C1` (stereo not drawn) [Example 16-1, Methyl 3-(2-(1-(4-fluorobenzyl)-3-(trifluoromethyl)-4,5-dihydro-1H-pyrazolo[3,4-c]pyridin-6(7H)-yl)-2-oxoethyl)piperidine-1-carboxylate], the pIC50 was not below 7.00. The same measure for `O=C(O)CC1CCN(CC(=O)N2CCc3c(C(F)(F)F)nn(Cc4ccc(Cl)cc4F)c3C2)C1` (stereo not drawn) [Example 13-24, 2-(1-(2-(1-(4-Chloro-2-fluorobenzyl)-3-(trifluoromethyl)-4,5-dihydro-1H-pyrazolo[3,4-c]pyridin-6(7H)-yl)-2-oxoethyl)pyrrolidin-3-yl)acetic acid TFA salt]: not below 7.00.

`CCOC(=O)[C@H]1CC[C@H](CC(=O)N2CCc3c(-c4ccccc4)nn(Cc4ccc(F)cc4)c3C2)CC1` [Example 1-44, trans-Ethyl 4-(2-(1-(4-fluorobenzyl)-3-phenyl-4,5-dihydro-1H-pyrazolo[3,4-c]pyridin-6(7H)-yl)-2-oxoethyl)cyclohexanecarboxylate]: the pIC50 was not below 7.00.

Regarding `O=C(N[C@H]1CC[C@@H](C(=O)O)CC1)N1CCc2c(C(F)(F)F)nn(Cc3ccc(Cl)cc3F)c2C1` [Example 5-6, cis-4-(1-(4-chloro-2-fluorobenzyl)-3-(trifluoromethyl)-4,5,6,7-tetrahydro-1H-pyrazolo[3,4-c]pyridine-6-carboxamido)cyclohexanecarboxylic acid], the negative-log IC50 (pIC50) is not below 7.00. The same measure for `CC(C)(C)OC(=O)N1CCC(CC(=O)N2CCc3c(C(F)(F)F)nn(Cc4ccc(Cl)cc4F)c3C2)CC1` [Example 8-2, tert-Butyl 4-(2-(1-(4-chloro-2-fluorobenzyl)-3-(trifluoromethyl)-4,5-dihydro-1H-pyrazolo[3,4-c]pyridin-6(7H)-yl)-2-oxoethyl)piperidine-1-carboxylate]: not below 7.00. The same measure for `CCOC(=O)[C@H]1CC[C@@H](CC(=O)N2CCc3c(C(F)(F)F)nn(Cc4cc(F)cc(Cl)c4)c3C2)CC1` [Example 2-4, cis-ethyl 4-(2-(1-(3-chloro-5-fluorobenzyl)-3-(trifluoromethyl)-4,5-dihydro-1H-pyrazolo[3,4-c]pyridin-6(7H)-yl)-2-oxoethyl)cyclohexanecarboxylate]: not below 7.00; for `O=C(CCc1nnn[nH]1)N1CCc2c(C(F)(F)F)nn(Cc3ccc(F)cc3)c2C1` [Example 1-32, 1-(1-(4-Fluorobenzyl)-3-(trifluoromethyl)-4,5-dihydro-1H-pyrazolo[3,4-c]pyridin-6(7H)-yl)-3-(1H-tetrazol-5-yl)propan-1-one]: not below 7.00; for `O=C(CC1CCCNC1)N1CCc2c(C(F)(F)F)nn(Cc3ccc(F)cc3)c2C1` (stereo not drawn) [Example 9-4, 1-(1-(4-Fluorobenzyl)-3-(trifluoromethyl)-4,5-dihydro-1H-pyrazolo[3,4-c]pyridin-6(7H)-yl)-2-(piperidin-3-yl)ethanone HCl salt]: not below 7.00. The same measure for `O=C(O)c1ccc(CC(=O)N2CCc3c(C(F)(F)F)nn(Cc4ccc(Cl)cc4F)c3C2)cc1` [Example 5-5, 4-(2-(1-(4-Chloro-2-fluorobenzyl)-3-(trifluoromethyl)-4,5-dihydro-1H-pyrazolo[3,4-c]pyridin-6(7H)-yl)-2-oxoethyl)benzoic acid]: not below 7.00; for `O=C(O)C1CCCN(CC(=O)N2CCc3c(C(F)(F)F)nn(Cc4ccc(Cl)cc4F)c3C2)C1` (stereo not drawn) [Example 13-3, 1-(2-(1-(4-Chloro-2-fluorobenzyl)-3-(trifluoromethyl)-4,5-dihydro-1H-pyrazolo[3,4-c]pyridin-6(7H)-yl)-2-oxoethyl)piperidine-3-carboxylic acid]: not below 7.00. As to `O=C(C[C@H]1CC[C@H](C(=O)O)CC1)N1CCc2c(C(F)(F)F)nn(Cc3cc(F)cc(Cl)c3)c2C1` [Example 5-3, trans-4-(2-(1-(3-chloro-5-fluorobenzyl)-3-(trifluoromethyl)-4,5-dihydro-1H-pyrazolo[3,4-c]pyridin-6(7H)-yl)-2-oxoethyl)cyclohexanecarboxylic acid], the pIC50 was not below 7.00.

`CC(C)(C)OC(=O)N1CC(CC(=O)N2CCc3c(C(F)(F)F)nn(Cc4ccc(Cl)cc4F)c3C2)C[C@H]1C(=O)O` (stereo partly drawn) [Example 5-18, (2S)-1-(tert-Butoxycarbonyl)-4-(2-(1-(4-chloro-2-fluorobenzyl)-3-(trifluoromethyl)-4,5-dihydro-1H-pyrazolo[3,4-c]pyridin-6(7H)-yl)-2-oxoethyl)pyrrolidine-2-carboxylic acid]: the pIC50 is not below 7.00. Turning to `O=C(N1CCc2c(C(F)(F)F)nn(Cc3ccc(F)cc3)c2C1)C12CCN(CC1)CC2` [Example 1-36, (1-(4-Fluorobenzyl)-3-(trifluoromethyl)-4,5-dihydro-1H-pyrazolo[3,4-c]pyridin-6(7H)-yl)(quinuclidin-4-yl)methanone TFA salt], the pIC50 is 6.30 to 6.60. The same measure for `O=C(N[C@H]1CC[C@H](C(=O)O)CC1)N1CCc2c(C(F)(F)F)nn(Cc3ccc(Cl)cc3F)c2C1` [Example 5-7, trans-4-(1-(4-Chloro-2-fluorobenzyl)-3-(trifluoromethyl)-4,5,6,7-tetrahydro-1H-pyrazolo[3,4-c]pyridine-6-carboxamido)cyclohexanecarboxylic acid]: not below 7.00. As for `O=C(O)CCCC(=O)N1CCc2c(C(F)(F)F)nn(Cc3ccc(Cl)cc3F)c2C1` [Example 14-2, 5-(1-(4-Chloro-2-fluorobenzyl)-3-(trifluoromethyl)-4,5-dihydro-1H-pyrazolo[3,4-c]pyridin-6(7H)-yl)-5-oxopentanoic acid], the pIC50 is not below 7.00. In the case of `O=C(C1CCn2cncc2C1)N1CCc2c(C(F)(F)F)nn(Cc3ccc(F)cc3)c2C1` (stereo not drawn) [Example 1-20, (1-(4-Fluorobenzyl)-3-(trifluoromethyl)-4,5-dihydro-1H-pyrazolo[3,4-c]pyridin-6(7H)-yl)(5,6,7,8-tetrahydroimidazo[1,5-a]pyridin-7-yl)methanone], the pIC50 is less than 5.00. The same measure for `NC12CCC(CC(=O)N3CCc4c(C(F)(F)F)nn(Cc5ccc(F)cc5)c4C3)(CC1)CC2` [Example 9-10, 2-(4-Aminobicyclo[2.2.2]octan-1-yl)-1-(1-(4-fluorobenzyl)-3-(trifluoromethyl)-4,5-dihydro-1H-pyrazolo[3,4-c]pyridin-6(7H)-yl)ethanone TFA salt]: 6.60 to 7.00. The same measure for `CN1CCC(CC(=O)N2CCc3c(C(F)(F)F)nn(Cc4ccc(Cl)cc4F)c3C2)CC1(C)C` (stereo not drawn) [Example 10-3, 1-(1-(4-Chloro-2-fluorobenzyl)-3-(trifluoromethyl)-4,5-dihydro-1H-pyrazolo[3,4-c]pyridin-6(7H)-yl)-2-(1,2,2-trimethylpiperidin-4-yl)ethanone TFA salt]: not below 7.00; for `O=C(CC1CCN2CCCC2C1)N1CCc2c(C(F)(F)F)nn(Cc3ccc(F)cc3)c2C1` (stereo not drawn) [Example 1-34, 1-(1-(4-Fluorobenzyl)-3-(trifluoromethyl)-4,5-dihydro-1H-pyrazolo[3,4-c]pyridin-6(7H)-yl)-2-(octahydroindolizin-7-yl)ethanone TFA salt]: not below 7.00; for `O=C(C[C@H]1CC[C@H](C(=O)O)CC1)N1CCc2c(C(F)(F)F)nn(C3CCCCC3)c2C1` [Example 7-19, trans-4-(2-(1-cyclohexyl-3-(trifluoromethyl)-4,5-dihydro-1H-pyrazolo[3,4-c]pyridin-6(7H)-yl)-2-oxoethyl)cyclohexanecarboxylic acid]: < 6.30 and ≥ 5.00.

Turning to `O=C(O[C@H]1CC[C@H](C(=O)O)CC1)N1CCc2c(C(F)(F)F)nn(Cc3ccc(Cl)cc3F)c2C1` [Example 7-10, trans-4-((1-(4-chloro-2-fluorobenzyl)-3-(trifluoromethyl)-4,5,6,7-tetrahydro-1H-pyrazolo[3,4-c]pyridine-6-carbonyl)oxy)cyclohexanecarboxylic acid], the negative logarithm of the IC50 (pIC50) is not below 7.00. The same measure for `O=C(O)C1CCN(CC(=O)N2CCc3c(C(F)(F)F)nn(Cc4ccc(F)cc4)c3C2)CC1` [Example 13-1, 1-(2-(1-(4-Fluorobenzyl)-3-(trifluoromethyl)-4,5-dihydro-1H-pyrazolo[3,4-c]pyridin-6(7H)-yl)-2-oxoethyl)piperidine-4-carboxylic acid]: not below 7.00; for `CC1CC(CC(=O)N2CCc3c(C(F)(F)F)nn(Cc4ccc(Cl)cc4F)c3C2)CCN1C(=O)OC(C)(C)C` (stereo not drawn) [Example 8-5, tert-Butyl 4-(2-(1-(4-chloro-2-fluorobenzyl)-3-(trifluoromethyl)-4,5-dihydro-1H-pyrazolo[3,4-c]pyridin-6(7H)-yl)-2-oxoethyl)-2-methylpiperidine-1-carboxylate]: not below 7.00. The same measure for `CCOC(=O)[C@H]1CC[C@@H](CC(=O)N2CCc3c(C(F)(F)F)nn(Cc4ccc(Cl)cc4F)c3C2)CC1` [Example 2-2, cis-Ethyl 4-(2-(1-(4-chloro-2-fluorobenzyl)-3-(trifluoromethyl)-4,5-dihydro-1H-pyrazolo[3,4-c]pyridin-6(7H)-yl)-2-oxoethyl)cyclohexanecarboxylate]: not below 7.00.

For the origin of these results see patent US10144732B2 (BIOGEN MA INC., priority 2014, dated 2018).
